Measured values as given in US9730902B2, “Polyamine transport inhibitors as novel therapeutics” (University of Central Florida Research Foundation, Inc., priority 2009, dated 2017).
Entries after “also recorded” stand apart in the source; their conditions may differ.

Key:
SW620 cells = assay: cells; settings: for Relative viability: human, 72 h
Protocol: The first assay implements the growth of mammalian cells in a 96 well plate format on tissue culture plates.
1.) The media contains a maximum of 2 mM aminoguanidine and a minimum of 0.25 mM aminoguanidine to prevent a cell culture artifact (i.e., degradation of native polyamines and PTI structures that contain terminal amine structures (e.g., trimer 3c) by bovine serum amine oxidases present in the cell culture media). As a general rule, aminoguanidine (AG) is not dosed at a concentration which induces 20% or more cytostasis in the cell line examined. This minimizes AG side-effects. All of the following treatments are begun 24 hours after seeding the cells.
3.) The maximum tolerated dose (MTD) of the PTI is determined by titrating it without the presence of DFMO or polyamine. The MTD is defined as the maximum concentration of the drug (e.g., PTI) that is shown to keep 100% of the cell population alive compared to the control ±10%.
(§1) This is defined as the “MTD under DFMO treatment.”
6.) The combination of DFMO, polyamine, and PTI are treated concomitantly after 24 hours of growth in a 96-well tissue culture treated plate. The duration of treatment is determined by step 2 for all three reagents. The concentration of DFMO is determined in step 2, the concentration of polyamine is determined in step 4 and the concentration of PTI is determined by step 3, the MTD. Note if the MTD of the PTI is altered by the presence of DFMO then the “MTD under DFMO treatment” is used as determined in step 6. The untreated control cells, DFMO only treatment, and DFMO+polyamine treatment, must be shown on the same plate as the experimental samples with PTI to ensure that these controls are working properly.
The first assay measures the ability of the new transport inhibitors to block rescue of DFMO-treated cells by putrescine (a native polyamine).

L3.6pl cells = assay: Block of spermidine rescue of DFMO-treated cells; assay type: cell-based, human
Protocol: FIG. 3 is a chart showing the block of spermidine rescue by trimer in a does dependent fashion in L3.6pl cells. […] This minimizes AG side-effects. […] The second assay measures the ability of the new transport inhibitor (the trimer 3c) to block rescue of DFMO-treated cells by spermidine. […] As shown below, the L3.6pl cells were dosed with 5 mM DFMO, which reduced their viability during the 48 hour incubation period to 60% of the control growth without DFMO (2nd column). However, these cells were rescued by the addition of exogenous spermidine (0.5 µM, 3rd column). […] However, in the presence of the trimer (i.e., the polyamine transport inhibitor 3c) we were able to block this rescue effect of spermidine (Spd) in a dose-dependent fashion (3c: 0.1 to 5 µM). For example, 3c at 2 µM in the presence of DFMO (5 mM)+spermidine (0.5 µM) gave 60% viability (7th column). Without the presence of the trimer, spermidine rescues the cells and one observes >90% viability (3rd column). The resulting data is in Table 1 and FIG. 3.

CHO-K1 cells = assay: Block of uptake of cytotoxic PAT probe Ant44 (cell rescue); assay type: cell-based, Chinese hamster; settings: for PAT inhibition: block of uptake of Ant44 at non-toxic concentrations; for rescue of cells from Ant44: inhibitor at 0.1 uM; for toxicity of inhibitor to cells: inhibitor at 100 uM in the presence of Ant44 (0.5 uM)
Protocol: FIG. 6. In CHO-K1 cells, cytotoxic compound Ant44 was dosed at 0.5 μM in the presence of 2 mM aminoguanidine and either Triamide 5c or Trimer 3c at varying concentrations then incubated for 48 hours. […] Note: 5c was able to rescue the CHO cells from Ant44 but required a higher dose of 5c (1 uM). Note: […] Note that all experiments performed contained a maximum of 2 mM aminoguanidine to prevent break-down of polyamine analogues in the serum. This cell culture artifact only arises due to bovine copper-dependent serum amine oxidases which are not present in humans and are therefore not of a concern. […] This is reflective upon their low Ki values observed in L1210 cells (Phanstiel reference).
FIG. 7. In CHO-K1 cells, the PAT-selective cytotoxic agent Ant44 was dosed at 0.5 μM in the presence of Trimer 3c at varying concentrations (in nM) and incubated for 48 hours. Note that 2 mM aminoguanidine was added to the media to blockade degradation by serum amine oxidases.
In this manner, the PTI (e.g. 1 uM) dosed at completely non-toxic concentrations was able to block the uptake of the toxic Ant44 compound (Ant44 dosed at its IC50 value, 0.5 uM). […] These experiments (FIGS. 6 and 7) were done in Chinese hamster ovary cells (CHO-K1) cells.

[1] = tested on: L3.6pl metastatic pancreatic cancer; assay: Block of putrescine rescue of DFMO-treated cells; assay type: cell-based, human
Protocol: The MTD of 3c in this cell line is 5 μM. All treatments (DFMO, putrescine, and 3c) were dosed simultaneously and for a duration of 72 hours.
The MTD of 3c in this cell line is 5 μM. All treatments (DFMO, putrescine, and 3c) were dosed simultaneously and for a duration of 48 hours.

[2] = tested on: MiaPaca-2 pancreatic cancer; assay: Block of putrescine rescue of DFMO-treated cells; assay type: cell-based, human
Protocol: The MTD under DFMO treatment of 3c in this cell line is 1 μM and as such the therapy became toxic at 2 μM. If the therapy is not toxic to normal cells, then this therapy is also valid for concentrations above 1 μM. All treatments (DFMO, putrescine, and 3c) were dosed simultaneously and for a duration of 96 hours.

[3] = tested on: L3.6pl metastatic pancreatic cancer; assay: Maximum tolerated dose (MTD) of the PTI; assay type: cell-based; settings: L3.6pl cell line
[4] = tested on: MiaPaca-2 pancreatic cancer; assay: MTD under DFMO treatment; assay type: cell-based
Source text: as §1

import of putrescine = assay: Selectivity of blocking import of native polyamines; assay type: cell-based; settings: putrescine versus spermidine and spermine, at the dosage used
SW480 = assay: Response of cell growth to DFMO; assay type: cell-based
RKO = assay: Response of cell growth to DFMO; assay type: cell-based
HCT-116 = assay: Response of cell growth to DFMO; assay type: cell-based
Panc-1 = assay: Response of cell growth to DFMO; assay type: cell-based

Compound: NCCCCNCCCCNCc1cc(CNCCCCNCCCCN)cc(CNCCCCNCCCCN)c1 [3c, N-(4-Amino-butyl)-N′-(3,5-bis-{[4-(4-amino-butylamino)-butylamino]-methyl}-benzyl)-butane-1,4-diamine]
- Relative viability (SW620 cells; 0.1 uM): 100%
- Relative viability (SW620 cells; 0.5 uM): 75%
- % Viability (L3.6pl cells; 5 mM DFMO + 0.5 uM Spd + trimer 0.1, 48 hour): 90%
- % Viability (L3.6pl cells; 5 mM DFMO + 0.5 uM Spd + trimer 0.5, 48 hour): 88%
- % Viability (L3.6pl cells; 5 mM DFMO + 0.5 uM Spd + trimer 1, 48 hour): 73%
- % Viability (L3.6pl cells; 5 mM DFMO + 0.5 uM Spd + trimer 2, 48 hour): 60%
- % Viability (L3.6pl cells; 5 mM DFMO + 0.5 uM Spd + trimer 3, 48 hour): 53%
- % Viability (L3.6pl cells; 5 mM DFMO + 0.5 uM Spd + trimer 5, 48 hour): 45%
- concentration able to protect CHO-K1 cells from Ant44 (CHO-K1 cells; Ant44 0.5 uM, 2 mM aminoguanidine, 48 hours, further titration): 80 nM
- PAT inhibition (CHO-K1 cells): potent PAT inhibitors
- rescue of cells from Ant44 (CHO-K1 cells; Ant44 0.5 uM, 48 hours): complete rescue
- toxicity of inhibitor to cells (CHO-K1 cells): moderate toxicity
- concentration from which treatment is effective ([1]; competing with 0.5 μM of putrescine, 48 hours): 0.5 µM
- concentration from which treatment is effective ([1]; competing with 1 μM of putrescine, 72 hours): 1 µM
- treatment effect ([2]; 0.5 μM of 3c, 0.5 μM of putrescine, DFMO, 96 hours): incomplete but effective treatment
- concentration from which treatment is effective ([2]; competing with 0.5 μM of putrescine, with DFMO, 96 hours): 1 µM
- MTD [3]: 5 µM
- MTD under DFMO treatment ([4]; MiaPaca-2, 96 hours): 1 µM
- concentration at which the therapy became toxic ([4]; MiaPaca-2, with DFMO, 96 hours): 2000 nM

Compound: NCCCCNCCCCNC(=O)c1cc(C(=O)NCCCCNCCCCN)cc(C(=O)NCCCCNCCCCN)c1 [5c, Benzene-1,3,5-tricarboxylic acid tris-{[4-(4-amino-butylamino)-butyl]-amide}]
- dose required to rescue the CHO cells from Ant44 (CHO-K1 cells; Ant44 0.5 uM, 48 hours): 1 µM
- PAT inhibition (CHO-K1 cells): potent PAT inhibitors
- rescue of cells from Ant44 (CHO-K1 cells; Ant44 0.5 uM, 48 hours): unable to rescue
- toxicity of inhibitor to cells (CHO-K1 cells): moderate toxicity
- selectivity of blocking import of native polyamines (import of putrescine): selectively blocks import of putrescine; also recorded: specific for putrescine

Compound: NCCCCNCCCCNCc1c2ccccc2cc2ccccc12 [Ant44, anthracen-9-ylmethyl-homospermidine conjugate, reference compound]
- viability relative to untreated CHO-K1 cells (CHO-K1 cells; Ant44 0.5 uM without PAT inhibitor, 2 mM aminoguanidine, 48 hours): 40%
- IC50 (CHO-K1 cells; cytotoxicity of Ant44, CHO-K1): 500 nM

Compound: NCCCCN [Putrescine, putrescine, reference compound]
- viability at 1 µM (SW620 cells; Homo sapiens, SW-620, 72 h, read-out: Relative viability): 100%

Compound: NCCCCNCCCN [spermidine, reference compound]
- % Viability (L3.6pl cells; 5 mM DFMO + 0.5 uM Spd, no trimer, 48 hour): > 90%
- % Viability (L3.6pl cells; 5 mM DFMO + 0.5 uM Spd, no trimer, 48 hour, listed as Spd): 91%

Compound: difluoromethylornithine [DFMO]
- reduction in growth (SW620 cells; DFMO (1 mM), MTS assay): 50%
- DFMO reduction in cell growth ([2]; 48, 72 and 96 hours): time dependent
- response to DFMO (SW480): respond to DFMO in a time dependent matter
- response to DFMO (RKO): respond to DFMO in a time dependent matter
- response to DFMO (HCT-116): respond to DFMO in a time dependent matter
- response to DFMO (Panc-1): respond to DFMO in a time dependent matter
